These results are taken from patent US20120076811A1 (priority 2009, published 2012).

Test [1] deals with lymphoid cells from type II collagen immunized DR1 transgenic mice. In kind it is cell-based, mouse.
Test [2] addresses HA259-274 specific CD4+ T cells from DR1 transgenic mice immunized with H5N1-rHA1 protein/CFA (T cel).
The target is the same in test [3]. The source holds these as a separate data set.
Test [4] addresses CD4+ CD44+ cells from CFA only immunized DR1 transgenic mice (T cell receptors on cells).
Test [5] deals with lymphoid cells from rHA1 immunized DR1 transgenic mice. In kind it is cell-based, mouse.
Test [6] deals with lymphoid cells from H5N1-rHA1 immunized DR1 transgenic mice. The test is classed as cell-based, mouse.
The test system is the same in test [7]. The test is classed as cell-based, mouse. This is another data set of the same source.
Test [8] has the same test system. The test is classed as cell-based, mouse. The source holds these as a separate data set.

Entries after “also recorded” stand apart in the source; their conditions may differ.

As to AGFKGEQGPKGEPGP [CII280-294], the “proliferative response ([3H]thymidine incorporation)” value (“proliferative response” below) in test [1] was “Strong dose dependent responses”.

Regarding “HA259-274/DR1 tetramers (from UniProt P01903 26-216) (peptide-MHC)”, in test [2], the fold increased staining against control CLIP/DR1 tetramers came out at 30 fold and the tetramer positive population was 3%. For the same substance, in test [3], the tetramer positive population (% of the CD4+ CD44+ cells) worked out at 0.1. In addition, the tetramer positive cells in test [4] turned out to be 0.01%.

On to INSSLPYQNIHPVTIGECPKY [HA298-317], for which the “proliferative response” value in test [5] was “significantly lower; also recorded: no response”.

For KMRMATPLLMQALPM [CLIP89-105], the “proliferation response ([3H]thymidine incorporation)” value in test [6] is reported as “not”. Moreover, in test [7], the “IFN-γ production in culture supernatant” value is recorded as “not”.

PKYVKQNTLKLAT [HA306-318]: in test [5], the “proliferative response” value was “Strong dose dependent responses”.

Regarding SNGNFIAPEYAYKIVK [HA259-274], the “proliferation response ([3H]thymidine incorporation)” value in test [6] is recorded as “Strong dose dependent proliferation responses”. The “IFN-γ production in culture supernatant” value in test [7] was “positive cytokine production”. The “IL-2 production in culture supernatant” value in test [8] is listed as “positive cytokine production”.
